Results: patent US8623859B2, “Bradykinin B1 antagonists” (Evotec AG, priority 2008, dated 2014)
Where a name gives a salt, the structure may show the parent alone.

biological target: T1, human B1 (Homo sapiens, UniProt P46663); assay: Calcium flux assay for Bradykinin B1 antagonist, CHO-K1 cell line expressing human B1; assay type: cell-based; conditions: CHO-K1 cells expressing human B1, agonist Lys-(Des-Arg)-Bradykinin, read-out: Potency (IC50 value against human B1)
T1 construct: host or cells: CHO-K1
T1 sequence (P46663 1-353): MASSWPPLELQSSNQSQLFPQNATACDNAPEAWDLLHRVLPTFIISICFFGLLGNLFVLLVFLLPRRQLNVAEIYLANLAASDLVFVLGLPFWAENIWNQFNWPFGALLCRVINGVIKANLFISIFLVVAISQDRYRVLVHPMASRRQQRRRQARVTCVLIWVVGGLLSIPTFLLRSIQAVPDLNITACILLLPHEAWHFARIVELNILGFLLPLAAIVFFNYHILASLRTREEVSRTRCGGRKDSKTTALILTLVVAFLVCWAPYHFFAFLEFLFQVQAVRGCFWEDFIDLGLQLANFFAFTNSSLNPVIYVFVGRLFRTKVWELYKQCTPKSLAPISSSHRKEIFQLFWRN
Outline: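 Inhibition of B1 agonist-evoked intracellular Ca2+ rise was followed by continuous fluorescence at 538 nm, with integrated, background-normalized signals plotted versus log compound concentration. Test compounds (eight 10-fold dilutions, triplicate, 1% DMSO final) were added 30 min at 25° C beforehand to Fluo-4AM-loaded human B1 CHO-K1 cells in pH 7.4 assay buffer.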

IC50 [nM]	SMILES
100 to 1000	COc1cc(C)c(S(=O)(=O)N(Cc2nc(C(=O)N3CCN(c4ccncc4)CC3)co2)C2CC2)c(C)c1 [Ex 161, N-Cyclopropyl-4-methoxy-2,6-dimethyl-N-({4-[(4-pyridin-4-ylpiperazin-1-yl)carbonyl]-1,3-oxazol-2-yl}methyl)benzenesulfonamide trifluoroacetate]
100 to 1000	COc1cc(C)c(S(=O)(=O)N(Cc2cc(C(=O)N(C)Cc3ccc(CN4CC(OC)C4)cc3)co2)C2CC2)c(C)c1 [Ex 149, 5-({Cyclopropyl[(4-methoxy-2,6-dimethylphenyl)sulfonyl]amino}methyl)-N-{4-[(3-methoxyazetidin-1-yl)methyl]benzyl}-N-methylfuran-3-carboxamide]
100 to 1000	COc1cc(C)c(S(=O)(=O)N(C)Cc2cc(C(=O)N(C)Cc3ccc(-c4cncnc4)cc3)co2)c(C)c1 [Ex 38, 5-({[(4-methoxy-2,6-dimethylphenyl)sulfonyl](methyl)amino}methyl)-N-methyl-N-(4-pyrimidin-5-ylbenzyl)furan-3-carboxamide]
< 10	COc1cc(C)c(S(=O)(=O)N(C)Cc2noc(C(=O)N(C)Cc3ccc(CN4CCCC4)cc3)n2)c(C)c1 [Ex 300, 3-({[(4-Methoxy-2,6-dimethylphenyl)sulfonyl](methyl)amino}methyl)-N-methyl-N-[4-(pyrrolidin-1-ylmethyl)benzyl]-1,2,4-oxadiazole-5-carboxamide trifluoroacetamide]
< 10	COc1cc(C)c(S(=O)(=O)N(Cc2nc(C(=O)N(C)Cc3ccc(CN4CCC(OC)CC4)cc3)co2)C2CC2)c(C)c1 [Ex 183, 2-({Cyclopropyl[(4-methoxy-2,6-dimethylphenyl)sulfonyl]amino}methyl)-N-{4-[(4-methoxypiperidin-1-yl)methyl]benzyl}-N-methyl-1,3-oxazole-4-carboxamide]
10 to 100	COc1cc(C)c(S(=O)(=O)N(Cc2nc(C(=O)N3CCC(OC4CCCN(C)C4)CC3)co2)C2CC2)c(C)c1 (stereo not shown) [Ex 248, N-Cyclopropyl-4-methoxy-2,6-dimethyl-N-{[4-({4-[(1-methylpiperidin-3-yl)oxy]piperidin-1-yl}carbonyl)-1,3-oxazol-2-yl]methyl}benzenesulfonamide trifluoroacetate]
100 to 1000	COc1cc(C)c(S(=O)(=O)N(C)Cc2cc(C(=O)NCCc3ccc(Nc4ccnc(N)n4)cc3)co2)c(C)c1 [Ex 45, N-(2-{4-[(2-aminopyrimidin-4-yl)amino]phenyl}ethyl)-5-({[(4-methoxy-2,6-dimethylphenyl)sulfonyl](methyl)amino}methyl)furan-3-carboxamide]
100 to 1000	COc1cc(C)c(S(=O)(=O)N(C)Cc2cc(C(=O)N3CCN(C4CCN(C)CC4)CC3)co2)c(C)c1 [Ex 1, 4-Methoxy-N,2,6-trimethyl-N-[(4-{[4-(1-methylpiperidin-4-yl)piperazin-1-yl]carbonyl}furan-2-yl)methyl]benzenesulfonamide]
10 to 100	COc1cc(C)c(S(=O)(=O)N(Cc2cc(C(=O)N(C)Cc3ccc(CN4CCC(C(=O)N(C)C)C4)cc3)co2)C2CC2)c(C)c1 (stereo not shown) [Ex 147, 1-(4-{[{[5-({Cyclopropyl[(4-methoxy-2,6-dimethylphenyl)sulfonyl]amino}methyl)furan-3-yl]carbonyl}(methyl)amino]methyl}benzyl)-N,N-dimethylpyrrolidine-3-carboxamide]
< 10	COc1cc(C)c(S(=O)(=O)N(Cc2cc(C(=O)N3CCC(CCN4CCCC4)CC3)co2)C2CC2)c(C)c1 [Ex 120, N-Cyclopropyl-4-methoxy-2,6-dimethyl-N-[(4-{[4-(2-pyrrolidin-1-ylethyl)piperidin-1-yl]carbonyl}furan-2-yl)methyl]benzenesulfonamide trifluoroacetate]
10 to 100	COc1cc(C)c(S(=O)(=O)N(C)Cc2nc(C(=O)N(C)Cc3ccc(CN4CCC(NC(C)=O)C4)cc3)co2)c(C)c1 (stereo not shown) [Ex 170, N-(4-{[3-(Acetylamino)pyrrolidin-1-yl]methyl}benzyl)-2-({[(4-methoxy-2,6-dimethylphenyl)sulfonyl](methyl)amino}methyl)-N-methyl-1,3-oxazole-4-carboxamide]
10 to 100	COc1cc(C)c(S(=O)(=O)N(Cc2cc(C(=O)N(C)CCc3ccc(C4=NCCN4)cc3)co2)C(C)C)c(C)c1 [Ex 48, N-{2-[4-(4,5-dihydro-1H-imidazol-2-yl)phenyl]ethyl}-5-({[(4-methoxy-2,6-dimethylphenyl)sulfonyl](1-methylethyl)amino}methyl)-N-methylfuran-3-carboxamide]
< 10	COc1cc(C)c(S(=O)(=O)N(Cc2nc(C(=O)N(C)Cc3ccc(CN4CCC(C)(O)C4)cc3)co2)C2CC2)c(C)c1 (stereo not shown) [Ex 198, 2-({Cyclopropyl[(4-methoxy-2,6-dimethylphenyl)sulfonyl]amino}methyl)-N-{4-[(3-hydroxy-3-methylpyrrolidin-1-yl)methyl]benzyl}-N-methyl-1,3-oxazole-4-carboxamide]
100 to 1000	COc1cc(C)c(S(=O)(=O)N(C)Cc2cc(C(=O)NCc3cc(CN4CCCC4)ccc3F)co2)c(C)c1 [Ex 151, N-[2-Fluoro-5-(pyrrolidin-1-ylmethyl)benzyl]-5-({[(4-methoxy-2,6-dimethylphenyl)sulfonyl](methyl)amino}methyl)furan-3-carboxamide trifluoroacetate]
10 to 100	COc1cc(C)c(S(=O)(=O)N(C)Cc2cc(C(=O)NCc3ccc(CN4CCC4)cc3)co2)c(C)c1 [Ex 97, N-[4-(Azetidin-1-ylmethyl)benzyl]-5-({[(4-methoxy-2,6-dimethylphenyl)sulfonyl](methyl)amino}methyl)furan-3-carboxamide trifluoroacetate]
< 10	COc1cc(C)c(S(=O)(=O)N(Cc2nc(C(=O)N3CCC(O)(CN4CCN(C)CC4)CC3)co2)C2CC2)c(C)c1 [Ex 223, N-Cyclopropyl-N-{[4-({4-hydroxy-4-[(4-methylpiperazin-1-yl)methyl]piperidin-1-yl}carbonyl)-1,3-oxazol-2-yl]methyl}-4-methoxy-2,6-dimethylbenzenesulfonamide trifluoroacetate]
< 10	COc1cc(C)c(S(=O)(=O)N(Cc2nc(C(=O)N3CCN(Cc4ccc(N5CCCC5)nc4)CC3)co2)C2CC2)c(C)c1 [Ex 237, N-Cyclopropyl-4-methoxy-2,6-dimethyl-N-{[4-({4-[(6-pyrrolidin-1-ylpyridin-3-yl)methyl]piperazin-1-yl}carbonyl)-1,3-oxazol-2-yl]methyl}benzenesulfonamide trifluoroacetate]
< 10	COc1cc(C)c(S(=O)(=O)N(Cc2nc(C(=O)N3CCN(Cc4cccnc4)CC3)co2)C2CC2)c(C)c1 [Ex 163, N-Cyclopropyl-4-methoxy-2,6-dimethyl-N-[(4-{[4-(pyridin-3-ylmethyl)piperazin-1-yl]carbonyl}-1,3-oxazol-2-yl)methyl]benzenesulfonamide trifluoroacetate]
10 to 100	CCN(Cc1ccc(CN2CCCC2)cc1)C(=O)c1coc(CN(C)S(=O)(=O)c2c(C)cc(OC)cc2C)c1 [Ex 150, N-Ethyl-5-({[(4-methoxy-2,6-dimethylphenyl)sulfonyl](methyl)amino}methyl)-N-[4-(pyrrolidin-1-ylmethyl)benzyl]furan-3-carboxamide trifluoroacetate]
100 to 1000	COc1cc(C)c(S(=O)(=O)N(C)Cc2nnc(C(=O)N(C)Cc3ccc(CN4CCCC(OC)C4)cc3)o2)c(C)c1 (stereo not shown) [Ex 284, 5-({[(4-Methoxy-2,6-dimethylphenyl)sulfonyl](methyl)amino}methyl)-N-{4-[(3-methoxypiperidin-1-yl)methyl]benzyl}-N-methyl-1,3,4-oxadiazole-2-carboxamide]
100 to 1000	COc1cc(C)c(S(=O)(=O)N(C)Cc2nc(C(=O)N(C)CCc3ccc(C4=NCCN4)cc3)cs2)c(C)c1 [Ex 80, N-{2-[4-(4,5-dihydro-1H-imidazol-2-yl)phenyl]ethyl}-2-({[(4-methoxy-2,6-dimethylphenyl)sulfonyl](methyl)amino}methyl)-N-methyl-1,3-thiazole-4-carboxamide]
< 10	COc1cc(C)c(S(=O)(=O)N(C)Cc2nsc(C(=O)NCCc3ccc(C4=NCCN4)cc3)n2)c(C)c1 [Ex 63, N-{2-[4-(4,5-dihydro-1H-imidazol-2-yl)phenyl]ethyl}-3-({[(4-methoxy-2,6-dimethylphenyl)sulfonyl](methyl)amino}methyl)-1,2,4-thiadiazole-5-carboxamide]
< 10	CN(Cc1ccc(C2=NCCN2)cc1)C(=O)c1coc(CN(C)S(=O)(=O)c2ccc(Cl)cc2Cl)c1 [Ex 21, 5-({[(2,4-dichlorophenyl)sulfonyl](methyl)amino}methyl)-N-[4-(4,5-dihydro-1H-imidazol-2-yl)benzyl]-N-methylfuran-3-carboxamide]
100 to 1000	COc1cc(C)c(S(=O)(=O)N(C)Cc2cc(C(=O)N(C)Cc3ccc(CN4CCC(OC)C4)cc3)co2)c(C)c1 (stereo not shown) [Ex 129, 5-({[(4-Methoxy-2,6-dimethylphenyl)sulfonyl](methyl)amino}methyl)-N-{4-[(3-methoxypyrrolidin-1-yl)methyl]benzyl}-N-methylfuran-3-carboxamide]

SMILES	IC50 [nM]
COc1cc(C)c(S(=O)(=O)N(Cc2cc(C(=O)N3CCN(C4CC5CCC(C4)N5C)CC3)co2)C2CC2)c(C)c1 (stereo not shown) [Ex 107, N-Cyclopropyl-4-methoxy-2,6-dimethyl-N-[(4-{[4-(8-methyl-8-azabicyclo[3.2.1]oct-3-yl)piperazin-1-yl]carbonyl}furan-2-yl)methyl]benzenesulfonamide trifluoroacetate]	10 to 100
